Laboratory results taken from patent publication US11655308B2, “HM-3 fusion protein and application thereof” (TASLY BIOPHARMACEUTICALS CO., LTD., priority 2017, dated 2023).
No end group written: not given here.

B1: IgG2-Fc-(GGGGS)3-HM-3 (protein)
chain: VECPPCPAPPVAGPSVFLFPPKPKDTLMISRTPEVTCVVVDVSHEDPEVQFNWYVDGVEVHNAKTKPREEQFNSTFRVVSVLTVVHQDWLNGKEYKCKVSNKGLPAPIEKTISKTKGQPREPQVYTLPPSREEMTKNQVSLTCLVKGFYPSDISVEWESNGQPENNYKTTPPMLDSDGSFFLYSKLTVDKSRWQQGNVFSCSVMHEALHNHYTQKSLSLSPGKGGGGSGGGGSGGGGSIVRRADRAAVPGGGGRGD

Key:
[1] = test system: transgenic blood vessel fluorescent zebrafish; test: In vivo anti-angiogenesis in zebrafish (SIVs area); set-up: area of SIVs: unit not given here; conditions: 500 ng/tail, 24 h
[2] = test system: human macrophage U937; test: TNF-α production by LPS-induced human macrophage U937 (ELISA); assay type: cell-based; conditions: LPS 1 μg/mL, 48 h, negative group 77.6±19.6
Experimental: Experimental method: Human macrophage U937 was cultured in RPMI-1640 medium containing 10% fetal bovine serum and double antibodies in a constant temperature incubator at 37° C. under the condition of 5% CO2, and the medium was replaced every 2 days. U937 cells in the logarithmic phase were collected, resuspended and adjusted to the concentration of 5×10^5/mL. 100 μL of cells was added to each well of a 96-well plate overnight and induced with LPS (1 μg/mL) in the following day, where n=3. At the same time, the cells were treated with agents, and respectively divided into a positive control group adalimumab, an HM-3 polypeptide group, an mPEG-SC-HM-3 polypeptide group, an HM-3 fusion protein (TSL-1, TSL-2, TSL-3, TSL-4) group, and the specific dosing scheme was shown in Table 5.
48 h after the agents worked, culture medium was collected and centrifuged, and supernatant was taken to measure the content of TNF-α therein by ELISA. Test results were expressed as mean±SD, and statistical T test was performed. *P<0.05 indicates significant difference, **P<0.01 indicates extremely significant difference. Based upon the results, the efficacy of the HM-3 fusion protein against rheumatoid arthritis was screened.

[3] = test system: transgenic blood vessel fluorescent zebrafish; test: In vivo anti-angiogenesis in zebrafish (SIVs area); set-up: area of SIVs: unit not given here; conditions: for inhibiting effect on angiogenesis: 20 ng/tail; for inhibition rate of angiogenesis / area of SIVs: 24 h; for area of SIVs: normal control group 53193
Experimental: Experimental method: transgenic blood vessel fluorescent zebrafish was randomly selected and put into a six-well plate with 30 fish per well, and intravenously injected HM-3 polypeptide, TSL-1 fusion protein, TSL-2 fusion protein, TSL-3 fusion protein and TSL-4 fusion protein respectively in accordance with the dosage of 20 ng/tail and 66 ng/tail; the dosage was […] in Avastin positive control and the injection volume was 20 nL/tail; the zebrafish injected 20 nL/tail of buffer solution served as a solvent control group, and the zebrafish without any treatment served as a normal control group. 10 pieces of zebrafish were randomly selected from each group after processed for 24 h to observe the intestinal vessels of the transgenic zebrafish by a fluorescence microscope, as well as to take and maintain images. Image analysis was performed by Nikon MS-Elements D 3.10 to calculate the area (S) of SIVs (subintestinal vessel, SIV). The calculation formula of angiogenesis inhibition rate was as follows: Angiogenesis inhibition rate (%)=(1−S(Test sample group)/S(Normal control group))×100%
Statistical analysis was performed by variance analysis and Dunnett's T-test and the results were expressed as Mean±SD, where p<0.05 indicates a significant difference.

[4] = test system: type-II CIA mice; test: Chronic inflammation model of type-II CIA in mice; assay type: in vivo, Balb/c mice
Experimental: Experimental method: Balb/c mice were taken and immunized for the first time. The concentration of type-II bovine collagen was 4 mg/mL. On the day of the experiment (day 0), complete Freund's adjuvant (CFA) and CII solution were mixed evenly in equal volume and emulsified. Excepting for the normal control group of Balb/c mice, mice in each group were sensitized by intracutaneous injection of 50 μL emulsifier at the end of tails. 21 days later, mice were re-immunized with the same dose of emulsifier at the end of tails, and incomplete Freund's adjuvant (IFA) served as an adjuvant at this time. Redness and swelling other arthritic symptoms appeared on toe joints of mice models approximately on the 29th day of the experiment, indicating successful modeling.
Animals in the modeling group on the 30th day of the experiment were randomly divided into:
There were 12 groups in total, and there were 8 pieces of mice in remaining each group excepting for 12 pieces in G1 (normal control group) and G2 (model group).
Measurement of mice weight: mice were weighed by an electronic balance every two days.
Measurement of sole thickness: the thickness of left, right and hind soles for each mouse was measured by a vernier caliper every two days.
Measurement of ankle joint width: the width of left and right ankle joints for each mouse was measured by vernier caliper every two days.
Arthritis index (AI) score: the severity of arthritis for each mouse was evaluated by a paw joint scoring method. 0: no redness and swelling; 1: redness and swelling of little toe joints; 2: redness and swelling of toe joints and toes; 3: redness and swelling of the portion below ankle joints; 4: redness and swelling of toe joints, toes and ankle joints. Scoring was performed once every two days until the end of the experiment.
Blood was collected from the orbit and serum was separated. After mice were killed by cervical dislocation, spleen and thymus were separated and weighed to calculate a spleen coefficient, and then the spleen and thymus were fixed in formalin stationary liquid.

[5] = test system: mice splenic lymphocyte proliferation stimulated by ConA; assay type: cell-based
Experimental: Experimental method: mice orbit was by bloodletting to death, and immediately immersed in 75% ethanol for 5-10 min, and then the spleen was removed on a clean bench and placed in PBS. The spleen was placed on a sterile cell strainer (200 mesh) and ground with a syringe nozzle; during grinding process, PBS was added continuously; the slurry was collected and centrifuged (1000 rpm for 5 min), then cells were washed 3 times with Tris-ammonium chloride solution, and washed again with a medium, and then re-suspended in the medium. Finally, trypan blue living cell staining was performed on the cells, and the survival rate was more than 95%. The concentration of viable cells was adjusted to 2×10^6/mL. […] was added to each well of a 96-well plate, meanwhile, ConA (concanavalin to simulate splenocyte proliferation) and drugs were added to each well. Six duplicates were set in each group.
The 96-well plate was incubated for 48 h in a 5% CO2 incubator at 37° C. 5 mg/mL of MTT was added to the 96-well plate, 20 μL for each well, and then it was incubated continuously for 4 h in the incubator. The culture medium in the 96-well plate was discarded and 100 μL DMSO was added to each well and mixed gently. Absorbance was measured by a microplate reader at the wavelength of 570 nm and reference wavelength of 630 nm.
Proliferation inhibition rate (PI) was calculated according to formula:
[formula] wherein, Atest is the absorbance of dosing group, and Acontrol is the absorbance of negative control. Test results were expressed as mean±SD, and statistical T test was performed. *P<0.05 indicates significant difference, **P<0.01 indicates extremely significant difference. Based upon the results, the efficacy of the fusion protein against rheumatoid arthritis was screened.
In the P4 control group, TSL-4 fusion protein served as a control agent.

| Molecule | inhibition rate of angiogenesis [1] [%] | area of SIVs ([1]; normal control group 53193) | TNF-α content in cell supernatant ([2]; high-dosage (Table 5: 18 μmol/L)) [pg/mL] | TNF-α content in cell supernatant ([2]; low-dosage (Table 5: 9 μmol/L)) [pg/mL] | inhibiting effect on angiogenesis [3] | inhibition rate of angiogenesis ([3]; 20 ng/tail iv) [%] | area of SIVs ([3]; 20 ng/tail iv) | inhibition rate of angiogenesis ([3]; 66 ng/tail iv) [%] | area of SIVs ([3]; 66 ng/tail iv) | ankle width ([4]; G4 HM-3 1.6 mg/kg IV 2 times/d, 30 times, day 60, model G2 4.83±0.20) [mm] | arthritis scoring ([4]; G4 HM-3 1.6 mg/kg IV 2 times/d, 30 times, day 60, model G2 11.5±1.7) | paw circumference ([4]; G4 HM-3 1.6 mg/kg IV 2 times/d, 30 times, day 60, model G2 13.62) [mm] | weight of mice ([4]; G4 HM-3 1.6 mg/kg IV 2 times/d, 30 times, day 60, model G2 19.5±1.6) [g] | spleen weight ([4]; G4 HM-3 1.6 mg/kg IV 2 times/d, 30 times, day 60, model G2 114.6±14.5) [mg] | therapeutic effect compared with group G3 (positive Adalimumab group) ([4]; groups G4 (HM-3), G10 (TSL-4 12.5 mg/kg once for 5 days, 3 times)) | TNF-α content in cell supernatant ([2]; 9 μM) [pg/mL] | optimal (best) inhibition rate of splenic lymphocyte proliferation ([5]; ConA 5 μg/mL, 48 h, MTT, best of the tested concentrations) [%] | inhibition rate compared with the positive control group ([5]; positive group Dexamethasone 50 μmol/L) |
| --- | --- | --- | --- | --- | --- | --- | --- | --- | --- | --- | --- | --- | --- | --- | --- | --- | --- | --- |
| Avastin: positive control in the zebrafish angiogenesis test | 29 | 37853 | – | – | – | – | – | – | – | – | – | – | – | – | – | – | – | – |
| IVRRADRAAVPGGGGRGD [HM-3, Ile-Val-Arg-Arg-Ala-Asp-Arg-Ala-Ala-Val-Pro-Gly-Gly-Gly-Gly-Arg-Gly-Asp] | – | – | 58.9 ± 10.6 | 83.9 ± 20.4 | no inhibiting effect | 2 | 52186 | 20 | 42492 | 4.21±0.15 | 7.8±1.4 | 11.41±0.53 | 20.9 ± 1.5 | 94.2 ± 13.3 | slightly lower than that of the group G3 | – | – | – |
| B1 | – | – | – | – | significant inhibitory effect | 23 | 40705 | 27 | 38660 | – | – | – | – | – | – | 38.6 ± 12.9 | 61.4 | higher than that of the positive control group |
